Measurements as given in patent US20130295060A1, “METHOD FOR CULTURING CARDIAC PROGENITOR CELLS AND USE OF CARDIAC PROGENITOR CELLS” (Ewha University-Industry Collaboration Foundation, priority 2012, published 2013).

B1: Dkk1: factor of the Wnt signaling pathway added to the differentiation medium (protein, UniProt O94907 32-266, looked up)
Dickkopf-related protein 1: TLNSVLNSNAIKNLPPPLGGAAGHPGSAVSAAPGILYPGGNKYQTIDNYQPYPCAEDEECGTDEYCASPTRGGDAGVQICLACRKRRKRCMRHAMCCPGNYCKNGICVSSDQNHFRGEIEETITESFGNDHSTLDGYSRRTTLSSKMYHTKGQEGSVCLRSSDCASGLCCARHFWSKICKPVLKEGQVCTKHRRKGSHGLEIFQRCYCGEGLSCRIQKDHHQASNSSRLHTCQRH
B2: Wnt3a: factor of the Wnt signaling pathway added to the differentiation medium (protein, UniProt P56704 19-352, looked up)
Protein Wnt-3a: SYPIWWSLAVGPQYSSLGSQPILCASIPGLVPKQLRFCRNYVEIMPSVAEGIKIGIQECQHQFRGRRWNCTTVHDSLAIFGPVLDKATRESAFVHAIASAGVAFAVTRSCAEGTAAICGCSSRHQGSPGKGWKWGGCSEDIEFGGMVSREFADARENRPDARSAMNRHNNEAGRQAIASHMHLKCKCHGLSGSCEVKTCWWSQPDFRAIGDFLKDKYDSASEMVVEKHRESRGWVETLRPRYTYFKVPTERDLVYYEASPNFCEPNPETGSFGTRDRTCNVSSHGIDGCDLLCCGRGHNARAERRREKCRCVFHWCCYVSCQECTRVYDVHTCK

Experiments:
cardiac progenitor cells [1] = assay: Effect of concentration of antifibrinolytic agent on cardiac progenitor cell-induced degradation of hydrogel (toluidine blue); assay type: cell-based; details: 0.5 or 1.0 mg/ml, 1 day culture
Procedure: 100 μl of the fibrinogen solution containing cardiac progenitor cells was added to 100 μl of each of the respective thrombin solutions containing aminomethylbenzoic acid in concentrations of […], 0.5, and 1.0 mg/ml. After complete formation of hydrogel, cardiac progenitor cells were cultured for 1 day, fixed with formalin, and stained with toluidine blue. An examination was made of the states of the fibrin hydrogels and cells.

[2] = test system: cardiac progenitor cell-induced fibrinolysis; assay: Inhibition of antifibrinolytic agents against cardiac progenitor cell-induced fibrinolysis (fibrin hydrogel degradation, Alexa Fluor 488-fibrinogen release); assay type: cell-based
Procedure: The cardiac progenitor cells were mixed at a density of 2×10^5 cells per 100 μl of each of the four fibrinogen solutions with 100 μl of the thrombin solution, followed by a cross-linking reaction for 2 hrs. Following the formation of hydrogel, 300 μl of a cell culture was added to the hydrogel, and incubated for 1 day. A hydrogel void of cardiac progenitor cells was prepared for use as a control.
Antifibrinolytic agents were purchased from Sigma.

myocardial fragments = assay: Organ culture of myocardial fragments in fibrin hydrogel with antifibrinolytic agent (phase-contrast microscopy); assay type: cell-based, human; details: 100 μg/ml solution added to fibrinogen solution, organ culture 3 days
Procedure: Four fibrinogen solutions with respective concentrations of 2.5, 5.0, 10.0, and 20.0 mg/ml were prepared, and each was added with a 100 μg/ml aminomethylbenzoic acid or tranexamic acid solution, as in Example 5. From the heart of a brain-dead patient, the myocardium was taken after the removal of both the epicardium and the endocardium. […] The myocardial fragments were added at a density of 10 per 0.5 ml of a 1 unit/ml thrombin solution. Each of the four fibrinogen solutions was mixed at a volume ratio of 1:1 with the thrombin solution containing the cardiac fragments. The resulting mixture was aliquoted in an amount of 1 ml per well into 6-multiwell tissue culture plates before performing a polymerization and cross-linking reaction to form a hydrogel.

cardiac progenitor cells [3] = assay: Suspension cell culture assay for differentiation into cardiomyocytes (real-time PCR); assay type: cell-based; details: 1 mM in medium, 1 and 3 days
Procedure: A suspension of cardiac progenitor cells in a medium inducing myocardial differentiation was seeded at a density of 20,000 to 100,000 cells/well into polymer-coated 24-multiwell tissue culture plates preventive of cell and protein adhesion (Ultra-Low Attachment Surface, Corning, Lowell, Mass.). The medium was supplemented with 1 mM Wnt3a or Dkk1 before culturing the cardiac progenitor cells in a suspension culture condition or a monolayer culture condition. After culturing for 1 and 3 days, RNA was isolated from the cardiac progenitor cells and used to synthesize cDNA. Real-time PCR was performed on this cDNA to quantify mRNA levels of bone morphogenetic protein 2 (BMP2), SOX17, ANP, α-MHC, β-MHC, MLC2a, and MLC2v (myosin light chain-2 ventricle), which are involved in the formation of cardiospheres or the Wnt signaling pathway, thus evaluating the potential to differentiate into cardiomyocytes.

Molecule | mRNA levels of ANP, α-MHC, β-MHC, MLC-2a and MLC2v (cardiac progenitor cells [3]) | mRNA levels of BMP2 and SOX17 (cardiac progenitor cells [3]) | also measured
NCc1ccc(C(=O)O)cc1 [aminomethylbenzoic acid] |  |  | cytotoxicity to the cardiac progenitor cells (cardiac progenitor cells [1]): caused cytotoxicity
NC[C@H]1CC[C@H](C(=O)O)CC1 [tranexamic acid] |  |  | antifibrinolytic activity compared with aminocaproid acid or aprotinin [2]: three times as high; hydrogel as cell adhesion substrate during organ culture of myocardial fragments (myocardial fragments): stable, three-dimensional cell adhesion substrates
aprotinin |  |  | degradation of fibrin hydrogel by cardiac progenitor cells ([2]; hydrogel containing the antifibrinolytic agent, cardiac progenitor cells embedded, incubated 1 day): 95%
B1 | reduced | decreased | 
B2 | increased | increased | 
